Here are results for 3 compounds from patent US20200239530A1, “COMPOUNDS AND METHODS OF MODULATING PROTEIN DEGRADATION” (Vividion Therapeutics, Inc., priority 2017, published 2020).

What all share (test): Cysteine liganding, probe competition
What all share (type): binding

One test addresses T1, UniProt Q969K3 (Homo sapiens, UniProt Q969K3).
T1 construct: 200 μL of lysate containing 5 mg/ml proteome was treated with 2 μL of 100× compound stock; endogenous in cells
From the text: (§1) The following 96-well sample prep protocol was used for sample preparation.

For the next test, the target named is T2, UniProt Q9NX47 (Homo sapiens, UniProt Q9NX47).
T2 construct: Cells were resuspended in cold PBS on ice and sonicated with a probe sonicator to achieve lysis; endogenous in cells
From the text: as §1

The target in the next test is T3, UniProt Q9NPC7 (Homo sapiens, UniProt Q9NPC7).
T3 construct: Cells were resuspended in cold PBS on ice and sonicated with a probe sonicator to achieve lysis; endogenous in cells
T3 sequence (Q9NPC7 1-610): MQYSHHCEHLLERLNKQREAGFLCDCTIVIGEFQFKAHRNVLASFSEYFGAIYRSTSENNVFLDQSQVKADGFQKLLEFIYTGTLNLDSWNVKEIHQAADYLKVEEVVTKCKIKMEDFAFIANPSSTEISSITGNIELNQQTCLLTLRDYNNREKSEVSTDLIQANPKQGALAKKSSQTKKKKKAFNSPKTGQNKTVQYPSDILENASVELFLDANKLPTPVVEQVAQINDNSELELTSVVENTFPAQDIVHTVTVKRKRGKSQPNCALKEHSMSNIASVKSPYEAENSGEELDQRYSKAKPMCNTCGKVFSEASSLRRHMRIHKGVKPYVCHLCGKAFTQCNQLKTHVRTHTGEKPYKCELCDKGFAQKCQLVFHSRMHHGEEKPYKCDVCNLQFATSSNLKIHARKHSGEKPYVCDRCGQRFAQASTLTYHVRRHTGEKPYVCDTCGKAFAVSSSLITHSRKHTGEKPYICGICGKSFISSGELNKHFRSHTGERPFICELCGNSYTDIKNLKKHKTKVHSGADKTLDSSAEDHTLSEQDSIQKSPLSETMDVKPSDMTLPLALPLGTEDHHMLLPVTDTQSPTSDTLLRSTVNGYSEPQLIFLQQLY
From the text: as §1

The target of another test is T4, UniProt Q9BVG3 (Homo sapiens, UniProt Q9BVG3).
T4 construct: 200 μL of lysate containing 5 mg/ml proteome was treated with 2 μL of 100× compound stock; endogenous in cells
From the text: as §1

The next test concerns the target T5, UniProt A1L020 (Homo sapiens, UniProt A1L020).
T5 construct: Cells were resuspended in cold PBS on ice and sonicated with a probe sonicator to achieve lysis; endogenous in cells
From the text: as §1

A further test deals with T6, UniProt P46934 (Homo sapiens, UniProt P46934).
T6 construct: Cells were resuspended in cold PBS on ice and sonicated with a probe sonicator to achieve lysis; endogenous in cells
T6 sequence (P46934 1-1319): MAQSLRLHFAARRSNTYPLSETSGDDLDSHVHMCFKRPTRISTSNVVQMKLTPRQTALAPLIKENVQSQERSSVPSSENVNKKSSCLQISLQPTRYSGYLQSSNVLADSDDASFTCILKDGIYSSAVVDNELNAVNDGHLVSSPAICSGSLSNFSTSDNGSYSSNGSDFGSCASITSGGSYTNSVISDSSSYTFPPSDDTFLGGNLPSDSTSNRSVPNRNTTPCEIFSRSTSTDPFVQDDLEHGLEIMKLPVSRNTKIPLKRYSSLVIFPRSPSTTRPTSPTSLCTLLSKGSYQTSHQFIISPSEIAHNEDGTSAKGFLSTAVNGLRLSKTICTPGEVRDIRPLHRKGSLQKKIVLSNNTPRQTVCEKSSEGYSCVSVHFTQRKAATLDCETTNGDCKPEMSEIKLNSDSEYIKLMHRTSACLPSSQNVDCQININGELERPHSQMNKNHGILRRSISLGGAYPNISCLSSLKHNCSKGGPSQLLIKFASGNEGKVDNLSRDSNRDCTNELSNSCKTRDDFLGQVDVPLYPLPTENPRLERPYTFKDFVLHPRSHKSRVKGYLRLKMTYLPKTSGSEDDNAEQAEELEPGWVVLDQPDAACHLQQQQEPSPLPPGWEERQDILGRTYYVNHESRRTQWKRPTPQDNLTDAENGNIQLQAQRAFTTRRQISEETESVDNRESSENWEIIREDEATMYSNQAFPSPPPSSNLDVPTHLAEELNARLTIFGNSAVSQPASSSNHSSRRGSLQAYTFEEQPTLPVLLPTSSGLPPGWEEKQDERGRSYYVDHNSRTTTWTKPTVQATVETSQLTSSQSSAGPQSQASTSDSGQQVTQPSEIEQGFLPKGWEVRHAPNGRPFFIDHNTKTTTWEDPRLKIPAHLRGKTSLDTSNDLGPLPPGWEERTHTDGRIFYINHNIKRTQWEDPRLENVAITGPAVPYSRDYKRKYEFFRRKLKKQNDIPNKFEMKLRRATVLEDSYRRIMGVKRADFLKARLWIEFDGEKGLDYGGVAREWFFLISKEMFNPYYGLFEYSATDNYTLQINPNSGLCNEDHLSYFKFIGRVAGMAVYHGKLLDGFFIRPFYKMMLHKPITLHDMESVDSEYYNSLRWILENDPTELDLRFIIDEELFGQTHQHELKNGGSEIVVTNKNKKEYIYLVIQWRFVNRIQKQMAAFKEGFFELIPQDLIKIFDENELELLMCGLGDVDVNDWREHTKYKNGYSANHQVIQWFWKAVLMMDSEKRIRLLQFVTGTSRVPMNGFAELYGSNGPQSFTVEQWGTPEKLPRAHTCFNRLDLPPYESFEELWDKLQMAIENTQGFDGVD
From the text: as §1

Where [1] appears, read: 100 uM, read-out: percent inhibition.
Where [2] appears, read: 500 uM, read-out: percent inhibition.

T5 sequence (A1L020 whole entry, change not shown): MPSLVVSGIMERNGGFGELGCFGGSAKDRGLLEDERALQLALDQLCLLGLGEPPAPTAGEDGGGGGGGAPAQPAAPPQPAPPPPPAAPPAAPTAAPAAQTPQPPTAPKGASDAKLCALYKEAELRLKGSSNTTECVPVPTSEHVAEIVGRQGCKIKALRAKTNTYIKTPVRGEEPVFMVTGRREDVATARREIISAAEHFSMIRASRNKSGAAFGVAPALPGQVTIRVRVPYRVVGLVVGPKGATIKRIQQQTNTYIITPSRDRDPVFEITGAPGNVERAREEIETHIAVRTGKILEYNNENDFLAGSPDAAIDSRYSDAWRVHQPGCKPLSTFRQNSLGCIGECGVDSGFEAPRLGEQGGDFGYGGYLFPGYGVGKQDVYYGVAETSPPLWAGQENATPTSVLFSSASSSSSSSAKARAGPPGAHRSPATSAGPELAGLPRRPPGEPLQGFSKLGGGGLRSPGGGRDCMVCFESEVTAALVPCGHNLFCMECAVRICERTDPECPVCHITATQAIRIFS
T4 sequence (Q9BVG3 whole entry, change not shown): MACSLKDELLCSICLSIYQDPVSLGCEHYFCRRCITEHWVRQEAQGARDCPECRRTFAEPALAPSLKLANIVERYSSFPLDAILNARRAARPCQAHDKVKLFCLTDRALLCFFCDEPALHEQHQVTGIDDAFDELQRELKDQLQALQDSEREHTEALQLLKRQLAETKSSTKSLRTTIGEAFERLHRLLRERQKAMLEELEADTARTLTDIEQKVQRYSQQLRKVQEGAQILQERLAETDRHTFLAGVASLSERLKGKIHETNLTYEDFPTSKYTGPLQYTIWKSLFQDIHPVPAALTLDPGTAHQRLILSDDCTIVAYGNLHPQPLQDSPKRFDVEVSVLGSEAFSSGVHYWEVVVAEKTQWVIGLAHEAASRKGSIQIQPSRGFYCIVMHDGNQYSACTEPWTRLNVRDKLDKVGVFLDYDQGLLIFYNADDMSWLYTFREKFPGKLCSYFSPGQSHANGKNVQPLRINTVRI
T2 sequence (Q9NX47 whole entry, change not shown): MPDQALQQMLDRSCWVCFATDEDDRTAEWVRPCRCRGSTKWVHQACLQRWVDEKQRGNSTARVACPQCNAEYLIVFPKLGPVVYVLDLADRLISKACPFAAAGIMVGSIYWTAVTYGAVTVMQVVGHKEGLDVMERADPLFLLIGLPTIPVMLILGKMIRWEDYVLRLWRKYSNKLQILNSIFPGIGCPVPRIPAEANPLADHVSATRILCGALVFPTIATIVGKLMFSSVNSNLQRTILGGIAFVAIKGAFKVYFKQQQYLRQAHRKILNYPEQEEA
T1 sequence (Q969K3 whole entry, change not shown): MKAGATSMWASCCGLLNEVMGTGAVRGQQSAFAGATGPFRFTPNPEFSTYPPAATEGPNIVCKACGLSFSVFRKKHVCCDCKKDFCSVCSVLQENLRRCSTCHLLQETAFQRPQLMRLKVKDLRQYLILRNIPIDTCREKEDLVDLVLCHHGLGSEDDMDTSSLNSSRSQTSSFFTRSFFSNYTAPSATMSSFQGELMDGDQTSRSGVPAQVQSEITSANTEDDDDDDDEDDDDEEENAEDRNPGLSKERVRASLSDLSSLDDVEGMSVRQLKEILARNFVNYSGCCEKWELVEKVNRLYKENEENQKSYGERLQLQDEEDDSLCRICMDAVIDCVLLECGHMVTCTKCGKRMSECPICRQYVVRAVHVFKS

On UniProt Q969K3 (100 uM), `O=C(CCl)Nc1cc(C(F)(F)F)cc(C(F)(F)F)c1` [KBO3] returned a percent_inhibition of 18%. The percent inhibition is 30% on UniProt Q9NX47 (100 uM); 30% at UniProt Q9NPC7 (100 uM); 52% on UniProt A1L020 (100 uM); 71% at UniProt P46934 (100 uM); 76% at UniProt P46934 (500 uM). The “KB03_500 uM_percent_inhibition” value on UniProt Q9BVG3 (500 uM) was determined as 59%.

Regarding `COc1ccc2c(c1)CCCN2C(=O)CCl` [KB02], the inhibition at 100 µM on UniProt Q9NX47 (read-out: percent inhibition) was found to be 7%; at UniProt Q9BVG3 (100 uM, read-out: KB02_100 uM_percent_inhibition) it was 1%.

In the case of `C=CC(=O)N(c1ccccc1)c1ccc(Br)cc1` [KB05], the inhibition at 100 µM on UniProt Q969K3 (read-out: percent_inhibition) was found to be 8%; on UniProt Q9NPC7 (setting [1]) it was 1%; at UniProt A1L020 (read-out: percent inhibition) it was 19%; at UniProt P46934 (setting [1]), 52%. Further, the values for the inhibition at 500 µM at UniProt Q9NPC7 (setting [2]) and on UniProt P46934 (setting [2]) were 58% and 53%, respectively.
